Reference: US20200087516A1, “RED FLUORESCENT PROBE FOR USE IN DETECTION OF PEPTIDASE ACTIVITY” (The University of Tokyo, priority 2017, published 2020)

Legend:
[1] = system: γ-Glutamyl transpeptidase (GGT); experiment: Enzyme assay of fluorescent probes: fluorescence intensity change on GGT addition; type: biochemical; details: 1 μM probe, 10 mM NaPi buffer pH 7.4, 37° C., 1.1 U GGT; 585 nm (probe 1), 613 nm (probe 2)
Procedure: γ-Glutamyl transpeptidase (GGT) was added to fluorescent probes 1 and 2 of the present invention, and the changes in fluorescence intensity were measured.
Fluorescent probe 1 or 2 was dissolved to make 1 μM in 2.5 mL of 10 mM NaPi buffer (pH 7.4) containing 0.03% DMSO. The solution, kept at 37° C., was stirred using a magnetic stirrer, and the fluorescence intensity was measured. 1.1 U of GGT was added two minutes after the start of measurement in experiments other than the negative control. The fluorescence intensity of fluorescent probe 1 at 585 nm was measured for a total of 6000 seconds and the fluorescence intensity of probe 2 at 613 nm was measured for a total of 2400 seconds, and plotted as a function of time elapsed. The excitation wavelength was 550 nm for fluorescent probe 1 and 593 nm for fluorescent probe 2; the slit width was 2.4 nm, 5.0 nm for both excitation and fluorescence, and the photomultiplier tube voltage was 700 V.
As a result, the fluorescence intensity was confirmed to increase due to addition of GGT in the case of both fluorescent probes 1 and 2. The quantum yield of fluorescent probe 1 was 0.58 at pH 3.0. The quantum yield of fluorescent probe 2 was 0.26 at pH 3.0.

[2] = Fluorescence quantum yield; type: physicochemical; details: pH 3.0
[3] = Absorption/fluorescence spectrum measurement of the fluorescent probes (pKcycl from absorption spectra); type: physicochemical; details: computed from absorption spectra (FIG. 2, FIG. 4)
Excerpt: The absorption spectra and fluorescence spectra of fluorescent probe 1 (gGlu-MHM4ThPCR550) and fluorescent probe 2 (gGlu-HM3ThPSiR600) synthesized in Example 1 were each measured.
FIGS. 2 and 3 respectively show the absorption spectra and fluorescence spectra of fluorescent probe 1 (gGlu-MHM4ThPCR550) and, as a comparison, MHM4ThPCR550 having no gGlu group. The pKcycl values computed from the results in FIG. 2 are shown below in Table 3.
The absorption spectra of HM3ThPSiR600 and HM3ThPAcSiR600 having no gGlu group are also shown as a comparison.

[4] = system: SHIN3 cells disseminated intraperitoneally; experiment: In vivo imaging using cancer peritoneal dissemination model mice; details: 100 μM, 300 μL intraperitoneally, five minutes after administration
Procedure: A quantity of 300 μL of 100 μM fluorescent probes 1 and 2 was injected intraperitoneally into model mice that had been injected intraperitoneally with SHIN3. After five minutes, the mice were placed under isoflurane anesthesia and laparotomized, and imaging was conducted by a Maestro imager.
Fluorescence spectrum imaging was conducted using a mouse model in which SHIN3 cells had been disseminated intraperitoneally. SHIN3-disseminated model mice were established by intraperitoneally injecting 3×10^6 SHIN3 cells suspended in 300 μL of PBS(−) into seven-week-old female nude mice. The experiment was conducted 29-30 days after injection. The probe solution (100 μM, 300 μL) dissolved in PBS(−) was injected intraperitoneally and allowed to stand for five minutes. The mice were then anesthetized by inhalation of isoflurane, and the skin of the abdomen was cut open. The intestine was removed from the incision, placed on a black rubber plate, and the mesentery was spread. It was applied dropwise to the spread mesentery. Fluorescence imaging was conducted using a Maestro™ Ex In-Vivo Imaging System (CRi Inc.). […] An image with the wavelength of fluorescence derived from the probe cut out or an image spectrally unmixed with autofluorescence is shown. […]

[5] = pKcycl measured values of existing rhodamine derivatives (model structures); type: physicochemical; details: Table 1, model structures
Excerpt: A formula that calculates pKcycl from the free energy difference of the closed-ring form/ring-opened form by the analyzed cationic reaction was derived, assuming that acid-base equilibrium (lateral direction in the model) is reached quickly enough in the HM groups and amino groups. When the calculation results of close-1, open-1 were used as this free energy difference, it was understood that pKcycl of existing derivatives is accurately reproduced.

pKcycl (Measured) [5] | SMILES | change in fluorescence intensity due to addition of GGT [1] | quantum yield [2] | pKcycl (Measured) [3] | fluorescence imaging of tumors on the mesentery [4]
 | C[Si]1(C)c2cc(N)ccc2C2(OCc3sccc32)c2ccc(NC(=O)CC[C@H](N)C(=O)O)cc21 (stereo partly drawn) [fluorescent probe 2] | increase | 0.26 | 5.4 | small tumors having adequate contrast from the background could be observed
 | CC1OC2(c3ccc(N)cc3C(C)(C)c3cc(NC(=O)CC[C@H](N)C(=O)O)ccc32)c2ccsc21 (stereo partly drawn) [fluorescent probe 1] | increase | 0.58 | 6.3 | small tumors having adequate contrast from the background could be observed
8.1 | N=c1ccc2c(-c3ccccc3CO)c3ccc(N)cc3oc-2c1 [HMRG] |  |  |  | 
